Data from patent US11642333B2, “Inhalable formulation of a solution containing vilanterol trifenatate and umeclidinium bromide” (ANOVENT PHARMACEUTICAL (U.S.), LLC, priority 2019, dated 2023).

Experiments:
[1] = in vivo; cited from earlier work
[2] = Content of umeclidinium bromide and vilanterol trifenatate in the inhalation solutions (tested results); type: physicochemical
Method: 50% benzalkonium chloride and tween-80 according to table 1, were dissolved in 16 g of 95% ethanol for three times, and then transferred into 100 ml volumetric flask. […] Finally, the flask was made to volume with purified water.
50% benzalkonium chloride and tween-80 according to table 3, were dissolved in 95% ethanol according to table 3 for three times, and then transferred into 100 ml volumetric flask. […] Finally, the flask was made to volume with purified water.
50% benzalkonium chloride and tween-80 according to table 5, were dissolved in 95% ethanol according to table 5 for three times, and then transferred into 100 ml volumetric flask. […] Finally, the flask was made to volume with purified water.

Dissolution in the solution containing ethanol and tween-80 ([2]; sample I and sample II (table 2)): completely dissolved
Dissolution in the solution containing ethanol and tween-80 ([2]; sample III, sample IV and sample V (table 4)): completely dissolved
Dissolution in the solution containing ethanol and tween-80 ([2]; sample VI, sample VII and sample VIII (table 6)): completely dissolved
SMILES: OC(c1ccccc1)(c1ccccc1)C12CC[N+](CCOCc3ccccc3)(CC1)CC2.[Br-] [Umeclidinium bromide, 1-[2-(Benzyloxy)ethyl]-4-(hydroxydiphenylmethyl)-1-azoniabicyclo [2.2.2] octane bromide]
oral bioavailability [1]: poor
